Measured values as given in patent publication US20190187129A1, “CANCER MODELING PLATFORMS AND METHODS OF USING THE SAME” (Wake Forest University Health Sciences, priority 2016, published 2019).

How the values were obtained:
SW480 cells [1] = assay: 2D drug screen, MTS assay; type: cell-based; conditions: Homo sapiens, read-out: relative cellular viability (MTS, relative to control)
Procedure: Cancer cells seeded directly into wells were given 4-5 hours to reattach to the bottom of the wells. After that time, the anticancer drug solutions were administered in place of the media (FIG. 6, panel A) and an MTS assay was carried out 2 days later to determine cell viability. […] At 100 μM concentrations of Regorafenib and Sorafenib, and 100 mM concentrations of 5-FU, cellular viability remained below 20% that of the control for all four of the colorectal cancer cell lines utilized. However, screening with Dabrafenib and Trametinib produced diverging results from the other three anticancer drugs at higher concentrations. […] When treated with 1 mM concentrations of 5-FU, relative cellular viability was approximately 39% for SW480 cells and remained between 10%-22% for the HCT116, HT29, and CACO2 cells. These values were considerably lower than the relative cellular viability values for the lowest concentrations of the other anticancer drugs.
Cell Seeding: The original 15 mL centrifuge tubes containing the 10 mL of DMEM-10, cells, and trypsin were placed into a centrifuge. The centrifugation setting was 1500 RPM and at maximal acceleration for 5 minutes. After that time, the media and trypsin mixture was aspirated from the tubes, leaving the cell pellets still intact. 5 mL of DMEM-10 was then pipetted into each of the tubes, resuspending the cells in the process. Calculated volumes of the 5 mL cell-media solution were determined to ensure that 25,000 cells of each of the four colorectal cancer cell lines were seeded directly into each of the wells of a polystyrene clear-bottom 96-well plate. 100 μL of DMEM-10 media was then pipetted directly into the wells. The 96-well plates were incubated at 37° C. and 5% CO2 for 5 hours to allow the cells to reattach themselves to the bottom of the wells until media was aspirated and anticancer drug solutions were added.
Addition of Anticancer Drugs for Screening: The anticolorectal cancer drugs used in this screening included 5-FU, Regorafenib, Sorafenib, Trametinib, and Dabrafenib (Sigma-Aldrich, Missouri, USA)). High concentration drug stock solutions were created with DMSO. Lower concentration drug solutions were created by mixing the anticancer drug stocks with DMEM-10 media. […] drug solutions were generated for 5-FU; 1 μM, 10 μM, and 100 μM drug solutions were generated for Regorafenib, Sorafenib, and Dabrafenib; and 1 nM, 10 nM, and 100 nM drug solutions were generated for Trametinib. Media was carefully aspirated from the wells and 200 μL of the various drug-media solutions were placed into the wells containing cells. Three duplicates were generated for each anticancer drug concentration with each of the different cell types to calculate averages and run statistics on the data generated. Well plates were then incubated at 37° C. and 5% CO2 for […].
Cell viability assay: Cell viability was determined 48 hours after exposure to the anticancer drug solutions. The viability of the cells was examined by the CellTiter 96® AQueous One Solution Cell Proliferation (MTS) assay (Promega, Wisconsin, USA). The anticancer drug-media solutions were aspirated from the wells and 200 μL of the MTS reagent was carefully pipetted into the wells. The incubation time for the cells with the MTS reagent was approximately 45 minutes. The cell viability assay was performed on another 96-well plate and the absorbance was quantified by the EnVision Multilabel Plate Reader (PerkinElmer, California, USA).

CACO2 cells = assay: 3D hyaluronan-based hydrogel construct drug screen, MTS assay; conditions: Homo sapiens, Caco-2, 3D, read-out: percent relative cell viability (MTS, relative to control)
Procedure: (§1) Polydimethylsiloxane, or PDMS, was used to coat the bottom of the wells. Cells were embedded within the hyaluronan-based hydrogel and were given 5 days to acclimate to their three-dimensional environment and on day 5 were administered different anticancer drug solutions (FIG. 7, panel A). […] At 100 μM concentrations of Regorafenib and Sorafenib, cellular viability remained below 25% that of the control for all four of the colorectal cancer cell lines utilized. The only exception to this was when 100 μM Regorafenib was administered to CACO2 cells and the percent relative cell viability rose to approximately 48%. […] At a 100 μM concentration, Dabrafenib had greater efficacy in targeting the HCT116 and SW480 cell lines, which had relative cellular viability values of 38% and 43%, as opposed to the HT29 and CACO2 cell lines, which had higher cell viability values of 93% and 75%. 100 μM concentrations of Trametinib produced relative cellular viability results that fell within a narrow range for the four colorectal cell lines with values of 54% for SW480 cells and 74% for HT29 cells.
(§2) Well Coating with PDMS and Cell Isolation: Polydimethylsiloxane, or PDMS, (DOW Corning, North Carolina, USA) was used at a 1:10 curing agent ratio to coat the bottom of the 96-well plates and the plates were then placed in a 80° C. oven for at least one hour. Cells were passaged in the same methods previously mentioned (A) with the desire to place 10 μL 3D hyaluronan-based hydrogel constructs containing 100,000 cells each ([…]) into the wells of a 96-wells plate for all four colorectal cancer cell types. Depending on the cell count, a desired number of cells were isolated in new 15 mL centrifuge tubes as cell-media solution and underwent centrifugation.
(§3) Hydrogel Components of the Single-Cell Type Constructs: The hyaluronic acid-based hydrogel (ESI BIO, California, USA) was produced using a mixture of three components: Heprasil, Gelin-S, and Extralink PEGDA 2-ARM Acrylate crosslinker. These components were mixed in a 2:2:1 ratio by volume. 0.1% Irgacure photoinitiator (Sigma-Aldrich, Missouri, USA) was added to each of the three components prior to their mixture and the three components were placed in a 37° C. incubator for a ˜30 minutes to solubilize.
Forming Organoid Constructs: Once solubilized, the media was aspirated from the 15 mL centrifuge tube (post-centrifugation) and the cells were isolated as a pellet. The hydrogel components were added directly into the centrifuge tube containing the cells and the cells were carefully resuspended in the mixture. 10 μL of the gel-cell solution was placed in the center of the wells on the PDMS coating. This was continued for all wells containing cells and was repeated for each cell type. […]

HCT116 cells = assay: as above; conditions: Homo sapiens, HCT-116, 3D, read-out: percent relative cell viability (MTS, relative to control)
Procedure: Polydimethylsiloxane, or PDMS, was used to coat the bottom of the wells. Cells were embedded within the hyaluronan-based hydrogel and were given 5 days to acclimate to their three-dimensional environment and on day 5 were administered different anticancer drug solutions (FIG. 7, panel A). […], Dabrafenib had greater efficacy in targeting the HCT116 and SW480 cell lines, which had relative cellular viability values of 38% and 43%, as opposed to the HT29 and CACO2 cell lines, which had higher cell viability values of 93% and 75%. […]
as §2, §3
(§4) Forming Organoid Constructs: Once solubilized, the media was aspirated from the 15 mL centrifuge tube (post-centrifugation) and the cells were isolated as a pellet. The hydrogel components were added directly into the centrifuge tube containing the cells and the cells were carefully resuspended in the mixture. 10 μL of the gel-cell solution was placed in the center of the wells on the PDMS coating. This was continued for all wells containing cells and was repeated for each cell type. After this point, the gel can be exposed to UV light from a BlueWave 200 spot light (Dymax, Connecticut, USA) to solidify the hydrogel, or one can wait ˜30 minutes for the gel to form on its own. DMEM-10 media was then placed in the wells and the constructs were incubated for 5 days.
(§5) Anticancer Drug Screening and Cell Viability: The same five anticancer drugs were added on Day 5 and the cell viability assay occurred on Day 7.

SW480 cells [2] = assay: as above; type: cell-based; conditions: Homo sapiens
Procedure: as §1, §2, §3, §4, §5

Compound | viability at 1000 µM (SW480 cells [1]; 1 mM) | viability at 100000 µM (SW480 cells [1]; 100 mM) | viability at 10000 µM (CACO2 cells; 10 mM, CACO2) | viability at 10000 µM (HCT116 cells; 10 mM, HCT116) | viability at 100000 µM (HCT116 cells; 100 mM, HCT116) | viability at 10000 µM (SW480 cells [2]; 10 mM, SW480, read-out: percent relative cell viability (MTS, relative to control)) | viability at 100000 µM (SW480 cells [2]; 100 mM, SW480, read-out: percent relative cell viability (MTS, relative to control)) | viability at 100 µM (SW480 cells [1]; 100 μM) | viability at 100 µM (CACO2 cells; 100 μM, CACO2, drug day 5, assay day 7) | viability at 100 µM (HCT116 cells; 100 μM, HCT116, drug day 5, assay day 7) | viability at 100 µM (SW480 cells [2]; 100 μM, SW480, drug day 5, assay day 7, read-out: percent relative cell viability (MTS, relative to control))
O=c1[nH]cc(F)c(=O)[nH]1 [5-FU, 5-Fluorouracil] | ~39% | < 20% | 22% | 18% | 81% | 9% | 48% | – | – | – | –
CNC(=O)c1cc(Oc2ccc(NC(=O)Nc3ccc(Cl)c(C(F)(F)F)c3)c(F)c2)ccn1 [Regorafenib] | – | – | – | – | – | – | – | < 20% | ~48% | < 25% | < 25%
